Results published in publication PMC6272448, “Synthesis, ^18F-Radiolabelling and Biological Characterization of Novel Fluoroalkylated Triazine Derivatives for in Vivo Imaging of Phosphodiesterase 2A in Brain via Positron Emission Tomography” (Molecules, 2015).

Molecular target: T1, PDE2A (Mus musculus, UniProt Q922S4)
T1 construct: from tissue; host or cells: living female CD-1 mice (brain, in vivo)
T1 sequence (Q922S4 1-939): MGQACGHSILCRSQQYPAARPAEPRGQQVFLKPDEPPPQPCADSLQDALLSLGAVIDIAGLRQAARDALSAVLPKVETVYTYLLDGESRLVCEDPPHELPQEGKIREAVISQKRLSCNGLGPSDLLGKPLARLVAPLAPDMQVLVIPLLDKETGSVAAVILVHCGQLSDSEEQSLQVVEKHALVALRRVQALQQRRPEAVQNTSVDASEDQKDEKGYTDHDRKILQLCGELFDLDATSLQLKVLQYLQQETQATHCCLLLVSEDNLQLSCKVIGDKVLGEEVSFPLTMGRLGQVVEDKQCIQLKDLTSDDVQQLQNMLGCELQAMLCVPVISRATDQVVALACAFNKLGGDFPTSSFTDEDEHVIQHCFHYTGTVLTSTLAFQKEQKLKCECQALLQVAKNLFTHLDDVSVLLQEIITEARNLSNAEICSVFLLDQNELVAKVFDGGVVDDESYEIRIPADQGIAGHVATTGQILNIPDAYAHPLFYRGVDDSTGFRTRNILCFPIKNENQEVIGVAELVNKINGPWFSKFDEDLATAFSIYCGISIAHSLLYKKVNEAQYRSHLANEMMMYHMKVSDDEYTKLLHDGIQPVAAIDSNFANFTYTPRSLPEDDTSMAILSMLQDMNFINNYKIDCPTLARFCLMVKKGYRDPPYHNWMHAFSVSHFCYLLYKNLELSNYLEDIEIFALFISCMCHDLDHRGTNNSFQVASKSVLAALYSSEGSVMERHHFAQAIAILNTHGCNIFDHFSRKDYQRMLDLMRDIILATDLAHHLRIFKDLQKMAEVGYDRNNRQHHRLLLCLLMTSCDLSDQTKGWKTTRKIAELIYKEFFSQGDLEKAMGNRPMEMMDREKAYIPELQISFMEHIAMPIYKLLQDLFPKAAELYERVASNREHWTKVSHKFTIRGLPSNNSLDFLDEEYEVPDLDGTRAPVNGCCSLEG
Assay: small-animal PET/MR baseline studies in mice
Format: in vivo
Conditions: CD-1 mice, i.v. 9.7 ± 1.3 MBq, 0-55 min p.i., n = 4
Protocol: For PET/MR baseline studies of [^18F]TA3 in anaesthetized CD-1 mice, the radioligand was injected intravenously (9.7 ± 1.3 MBq, SAEOS ~70 GBq/µmol, n = 4), and whole body scans were performed for 60 min in listmode with a Mediso nanoScan PET/MR scanner followed by dynamic reconstruction. Time-activity curves (TACs) were generated for regions of interest such as whole brain, striatum, and cerebellum (Figure 8).
Female CD-1 mice (n = 4; age: 8 weeks; weight: 28.8 ± 1.2 g; supplier: Medizinisch-Experimentelles Zentrum Leipzig, Leipzig, Germany) were housed under a 12 h:12 h light-dark cycle at 26 °C in a vented animal cabinet. The animals received an injection of 9.7 ± 1.3 MBq of [^18F]TA3 into the tail vein followed by a 60 min PET/MR scan (Mediso nanoScan®, Budapest, Hungary). Each PET image was corrected for random coincidences, dead time, scatter and attenuation (AC), based on a whole body (WB) MR scan.
The reconstruction parameters for the list mode data are: 3D-ordered subset expectation maximization (OSEM), 4 iterations, 6 subsets, energy window: 400–600 keV, coincidence mode: 1–5, ring difference: 81. […]
The respective brain regions were identified using the MR information from the GRE scan. The activity data is expressed as mean standardized uptake value (SUV) of the overall ROI.

COc1ccc2nnc3c(C)nc(-c4cc(OCCC[18F])ccc4F)n3c2n1 [[^18F]TA3]
time-activity curve in cerebellum: constantly increased uptake in the cerebellum | time-activity curve in striatum: fast wash out of activity from the striatum
